Patent publication US20110028504A1, “Formulation of radioprotective alpha beta unsaturated aryl sulfones” (ONCONOVA THERAPEUTICS, INC., priority 2005, published 2011)

Experiments:
Assay type in all cases: physicochemical
[1] = Octanol-water partition coefficient; conditions: 25° C., n-octanol and HPLC water, triplicate; pH of the aqueous phase 8.1
Procedure: The octanol-water partition coefficient of the drug is determined at 25° C. Equal volumes (10 ml) saturated solution of ON.1210.Na in n-octanol and HPLC water are equilibrated at 25° C. in a shaking water bath for 48 hours. The pH of the aqueous phase is also determined. At a predetermined time, a known volume of both the organic and aqueous phase is collected via a filtered needle. Subsequently, the concentration of ON.1210.Na is determined by HPLC after adequate dilution.
The octanol-water partition coefficient of the drug is determined at 25° C. using equal volumes (10 ml) of saturated solution of ON.1210.Na in n-octanol and HPLC water. Similarly, the partition coefficient is determined using simulated gastric and intestinal fluid without enzymes. The octanol-water partition coefficient is determined using the following equation: […]

[2] = Solid-state stability at 75° C.
Procedure: The stability of ON.1210.Na in the solid state is determined by exposing the drug at 75° C. over a prolonged time. The sample is crimped in a 10 mL injection vial and kept at the above temperature. The sample is collected after 15 days and one month and reconstituted with diluting solution and its concentration is determined by HPLC. Appearance of any additional peak in the chromatogram is also noted. A control sample is represented by ON.1210.Na not exposed to 75° C. and reconstituted to a known concentration with diluting solution.

[3] = Forced degradation studies (HPLC)
Procedure: In order to establish the specificity of this assay procedure several forced degradation studies were conducted as follows:
The ON.1210.Na sample is prepared in HPLC grade water at a concentration of 200 μg/mL. All the peaks detected in the chromatogram at time zero are noted with their corresponding retention time and absolute peak areas. The solution is crimped into a 5 mL glass vial and autoclaved. After autoclaving, the sample is filtered through a 0.1μ filter and 20 μL of the filtered sample is analyzed. The absolute peak area of the peak after autoclaving and appearance of any additional peaks due to possible degradation is shown in Table 9.
One ml of the 500 μg/mL standard solution is mixed with 1 mL of 0.1 N HCl. The sample is cloudy in appearance and filtered prior to HPLC analysis. All the peaks detected in the chromatogram at time zero are noted with their corresponding retention time and absolute peak areas. The solution is crimped into a 5 mL glass vial and autoclaved. After autoclaving, the sample is filtered through a 0.1μ filter and […] of the filtered sample is analyzed by HPLC. The absolute peak areas of the peak after autoclaving, and appearance of any other peaks due to possible degradation are noted.
One ml of the 500 μg/mL standard solution is mixed with 1 mL of 0.1 N NaOH. The sample is clear in appearance. All the peaks detected in the chromatogram at time zero are noted with their corresponding retention time and absolute peak area. The solution is crimped into a 5 mL glass vial and autoclaved. After autoclaving, the sample is filtered through a 0.1μ filter and 20 μL of the filtered sample is analyzed. The absolute peak area of the peaks after autoclaving and appearance of any other peaks due to possible degradation are noted.
A solid drug sample (ON1210), after autoclaving in a crimped vial, is also evaluated for any degradation using the developed HPLC method. The sample, after autoclaving, is used to make a standard solution of 400 μg/mL and injected onto HPLC.
In this study, 30% of the hydrogen peroxide is diluted to 3% (v/v) with water. One ml of the 500 μg/mL standard solution is mixed with 1 mL of 3% hydrogen peroxide; then incubated at 50° C. over a period of two hours. All the peaks detected in the chromatogram at different time points are noted with their corresponding retention time and absolute peak areas. The chromatograms are run for 30 minute periods.

O=C([O-])c1ccc(/C=C/S(=O)(=O)Cc2ccc(Cl)cc2)cc1.[Na+] [ON.1210.Na, (E)-4-Carboxystyryl-4-chlorobenzylsulfone, Sodium Salt]
octanol:water partition coefficient [1]: 1.28-2.87
accelerated solid-state stability of the bulk drug substance [2]: no evidence of degradation
stability of the aqueous solution on autoclaving ([3]; 200 μg/mL in water): stable under autoclaving conditions
degradation under alkaline condition ([3]; 0.05N NaOH, autoclaving): Significantly more degradation is present under alkaline condition
degradation upon autoclaving ([3]; in presence of strong acid (0.05N HCl)): less than 10%
stability of the solid on autoclaving ([3]; solid drug autoclaved in a crimped vial, then 400 μg/mL by HPLC): stable under the autoclaving conditions
